Test results from patent US5627160A, “L-2',3'-dideoxy nucleoside analogs as anti-hepatitis B (HBV) and anti-HIV agents” (priority 1993, dated 1997).
Entries after “also recorded” stand apart in the source; their conditions may differ. Read-outs that look alike come from different tables or passages of the source.

Experiments:
HBV = experiment: Inhibition of HBV replication (secreted viral DNA, Southern analysis) in 2.2.15 cells; assay type: cell-based, Hepatitis B virus (in human hepatoma cell line 2.2.15); conditions: for IC50: Hepatitis B virus, 144 h, 2.2.15 cells, read-out: Anti-HBV ID50; for Activity against HBV, comparison / Inhibition of HBV DNA replication: in words
Experimental: The biological activity of the present compounds was assessed as described by Doong, S-L, et al., Proc. Natl. Acad. Sci. U.S.A 88, 8495-8499 (1991). The human hepatoma cell line carrying the HBV (designated 2.2.15) kindly provided by Dr. G. Acs was used in the study. Price, et al., Proc. Natl. Acad. Sci. U.S.A. 86, 8541 (1989). Briefly, six day-old cultures were treated with varying concentrations of the drug in the culture medium (Minimum essential medium with Earl's salts and 10% fetal bovine serum). The drug was left in the culture medium for a period of 3 days after which period the medium was aspirated and fresh medium containing the same concentration(s) of the drug was added. At the end of the subsequent 3 day period the culture medium was harvested. The culture medium was processed for obtaining the virions by the polyethylene glycol precipitation method (Doong, et al., supra). Viral DNA thus recovered from the secreted particles was subjected to Southern analysis. Inhibition of the viral replication was determined by the comparison of the viral DNA from drug-treated versus control cultures not treated with the drug.

[1] = Cellular toxicity in T-lymphoblastoic cell line (CEM), cell numbers 3 days post treatment; assay type: cell-based; conditions: human; CEM cells, 3 days; read-out: Cytotoxicity CEM Cells ID50
Experimental: (§1) To determine the cellular toxicity of the present compounds, the T-lymphoblastoic cell line (CEM) was used. Cells were subjected to varying concentrations of the drug(s) and cell numbers were determined 3 days post treatment by the method described by Chen, C-H and Cheng, Y-C J. Biol. Chem., 264, 11934 (1989). Concentrations of the drug which would result in 50% killing of the cell populations were determined from the plot generated by representing cell numbers corresponding to the individual drug concentrations.

HIV-1 (HTLV-IIIB Strain) = experiment: Anti-HIV drug susceptibility assay in MT-2 cells (MTT dye reduction); assay type: cell-based; conditions: for IC50: MT-2 cells; for Anti-HIV activity compared with ddC: in words
Experimental: Drug susceptibility assay for determining the effectiveness of the compounds of the present invention against HIV in MT-2 cells is a modification of the assay described in Mellors, et al., Molecular Pharmacology, 41, 446 (1992). Drug-mediated inhibition of virus-induced cell toxicity was measured by the A595 of MTT ([3-I 4,5-dimethyl thiazol-2-yl]-2,3-diphenyltetrazolium bromide) (Sigma M-2128). Triplicate wells of a 96 well plate which contains 1×10^4 MT2 cells (AIDS-repository) were infected with HIV-1 (HTLV-IIIB Strain-R.C. Gallo) at a multiplicity of 0.01 TCID50 /cell. MT-2 cells in RPMI 1640 media supplemented with 10% dialysized fetal bovine and 100 ug/ml Kanamycin were infected with virus and immediately added to serial dilution of the drug. After 5 days, 20 ul of MTT dye (2.5 mg/ml in PBS) was added per well. At the end of a four hour incubation period 150 ul of acidified 2-propanol with NP-40 non-ionic detergent was added. After the crystals of dye dissolve (usually 1-2 days), the plates are read on a micro-plate reader. Using this MTT-dye reduction method (as set forth by Larder, et al., Antimicrobial Agents and Chemotherapy, 34, 436 (1990), the percentage of protection can be calculated using the formula [(a-b/c-b)×100] in which a=A595 of drug treated cells, b is […] and c is the A595 of the non-drug infected cells.

[2] = test system: human immunodeficiency virus (HIV); conditions: Larder et al., 1990, cited from earlier work
[3] = test system: Hepatitis B viral infections; conditions: chronic HBV infection; foscarnet in fulminant hepatitis; cited from earlier work
CEM Cells = experiment: Cellular toxicity in T-lymphoblastoic cell line (CEM), cell numbers 3 days post treatment; assay type: cell-based; conditions: in words, β-L-ddC / β-L-FddC versus ddC
Experimental: as §1

in vitro = conditions: human, cem cells
Experimental: (§2) The effects of the various drug concentrations on mitochondrial DNA (mt DNA) was evaluated by the method described by Chen and Cheng, supra. CEM cells treated with varying concentrations of the drug were collected by centrifugation. After washing the cells with phosphate buffered saline, cells were lysed by suspending the cells in 10 mM Tris-HCl (pH 7.0) and repeating freeze thaw cycles. The resulting cells were then subjected to RNase A treatment at a final enzyme concentration of 10 ug/ml, followed by proteinase K treatment (100 ug/ml) for 1 hour. The DNA thus obtained by this procedure was then immobilized on nylon membrane after the addition of 0.8 vol of NaI and boiling for 10 minutes. Hybridization of the resulting DNA to a mt DNA specific probe was performed by following the method of Doong, S-L, supra and autoradiography was also performed. Quantitative estimates were obtained by scanning densitometer. The blots were stripped of the mtDNA probe and rehybridized to human Alu sequence probe to determine the amounts of DNA for normalization and estimation of absolute amounts of the mt DNA.

Hepatitis B virus = conditions: Chang et al., 1992; cited from earlier work
[4] = in words; cited from earlier work
[5] = test system: mitochondrial DNA (mt DNA)
Experimental: as §2

[6] = Human immunodeficiency virus 1, MT2, 120 h, HIV-1 HTLV-IIIB, Table 1, read-out: Anti-HIV ID50
[7] = Human immunodeficiency virus 1, IIIB, MT2, 120 h, read-out: ID50 concentration required to inhibit viral replication (HIV)

Question: Which results are given for `Nc1ccn([C@@H]2CC[C@H](CO)S2)c(=O)n1` [β-L-ddSC, 1-(2,3-dideoxy-4-thio-beta-L-ribofuranosyl)cytosine]?
Answer: IC50 (HBV): > 500 nM; CC50 at 72 h [1]: > 100000 nM; IC50 (HIV-1 (HTLV-IIIB Strain); [6]): 70000 nM

Question: Which “Activity against human immunodeficiency virus” value [2] does the source give for `[N-]=[N+]=N[C@H]1C[C@H](n2ccc(=O)[nH]c2=O)O[C@@H]1CO` [3'-azido-2',3'-dideoxyuridine] here?
Answer: The value was “significant activity”.

Question: With `Cc1cn([C@H]2C[C@H](F)[C@@H](CO)O2)c(=O)[nH]c1=O` [3'-fluoro-3'-deoxythymidine] as the molecule, how does the “Activity against human immunodeficiency virus” value [2] read?
Answer: The value was “significant activity”.

Question: With `Nc1ncnc2c1ncn2[C@H]1C[C@H](F)[C@@H](CO)O1` [3'-fluoro-2',3'-dideoxyadenosine] as the molecule, how does the “Activity against human immunodeficiency virus” value [2] read?
Answer: Its value is “significant activity”.

Question: Which “Success of therapy of hepatitis B” value [3] does the source give for `Nc1ncnc2c1ncn2[C@@H]1O[C@H](COP(=O)(O)O)[C@@H](O)[C@@H]1O` [ara-AMP] here?
Answer: Its value is “limited success”.

Question: For `Nc1nc2c(ncn2[C@H]2C=C[C@@H](CO)C2)c(=O)[nH]1` [Carbovir, carbocyclic analog of 2',3'-dideoxy-2',3'-didehydroguanosine], which “Activity against human immunodeficiency virus” value [2] is on record?
Answer: Its value is “significant activity”.

Question: Which “Activity against human immunodeficiency virus” value [2] does the source give for `Cc1cn([C@H]2C=C[C@@H](CO)O2)c(=O)[nH]c1=O` [Compound D4T, 3'-deoxy-2',3'-didehydrothymidine] here?
Answer: Its value is “significant activity”.

Question: Which results are given for `Nc1ccn([C@@H]2CC[C@H](CO)O2)c(=O)n1` [β-L-ddC, 1-(2,3-dideoxy-beta-L-ribofuranosyl)cytosine]?
Answer: IC50 (HBV): 10 nM; Activity against HBV, comparison (HBV): several fold higher activity against HBV; Inhibition of HBV DNA replication (HBV): efficiently inhibited; CC50 at 72 h [1]: 70000 nM; Cellular cytotoxicity, comparison with ddC (CEM Cells): considerably less; IC50 (HIV-1 (HTLV-IIIB Strain); [6]): 350 nM; IC50 (in vitro): > 100000 nM

Question: Which results are given for `Nc1ccn([C@H]2CS[C@@H](CO)O2)c(=O)n1` (stereo in doubt) [(-)isomer, (-)-2',3'-Dideoxy-3'-thiacytidine]?
Answer: Activity against Hepatitis B virus in culture (Hepatitis B virus): potent activity; Toxicity (Hepatitis B virus): relatively low toxicity

Question: With `Nc1ccn([C@H]2C=C[C@@H](CO)O2)c(=O)n1` [Compound D4C, 2',3'-dideoxy-2',3'-didehydrocytidine] as the molecule, how does the “Activity against human immunodeficiency virus” value [2] read?
Answer: The value was “significant activity”.

Question: For `Nc1nc(=O)n([C@@H]2CS[C@H](CO)O2)cc1F` (relative stereo) [(±)5-FSddC], which “Activity against Hepatitis B virus in culture” value (Hepatitis B virus) is on record?
Answer: Its value is “potent activity”.

Question: Which IC50 (HBV) does the source give for `Nc1ccn([C@H]2CC[C@@H](CO)O2)c(=O)n1` [ddC, 1-(2,3-dideoxy-beta-D-ribofuranosyl)cytosine, reference compound] here?
Answer: The IC50 was 2800 nM.

Question: What about the CC50 at 72 h [1] of the same molecule?
Answer: Its CC50 at 72 h is 28000 nM.

Question: What about the “Cellular cytotoxicity, comparison with ddC” value (CEM Cells) of the same molecule?
Answer: The value was “much more cytotoxic; also recorded: more cytotoxic than β-L-FddC”.

Question: And the IC50 (HIV-1 (HTLV-IIIB Strain); [7])?
Answer: The IC50 was 28 nM.

Question: What about the “Anti-HIV activity compared with ddC” value (HIV-1 (HTLV-IIIB Strain)) of the same molecule?
Answer: Its value is “less active against HIV”.

Question: What about the “Activity against human immunodeficiency virus” value [2] of the same molecule?
Answer: The value was “among the most potent inhibitors of HIV”.

Question: And the “Activity against human immunodeficiency virus” value ([2]; listed as DDC)?
Answer: The value was “significant activity”.

Question: And the Dose limiting toxicity [4]?
Answer: Its Dose limiting toxicity is “severe neuropathy”.

Question: What about the IC50 (in vitro) of the same molecule?
Answer: Its IC50 is 22 nM.

Question: Which “Success of therapy of hepatitis B” value [3] does the source give for `Nc1nc2c(ncn2COCCO)c(=O)[nH]1` [acyclovir] here?
Answer: The value was “little, if any, success”.

Question: For `OC[C@@H]1CC[C@H](n2cnc3c(O)ncnc32)O1` [DDI, 2',3'-dideoxyinosine], which “Activity against human immunodeficiency virus” value [2] is on record?
Answer: Its value is “significant activity”.

Question: With `Nc1nc(=O)n([C@H]2CC[C@H](CO)O2)cc1F` [alpha-L-FddC, 1(2,3-dideoxy-alpha-L-ribofuranosyl)-5-fluorocytosine] as the molecule, how does the IC50 (HBV) read?
Answer: The IC50 was 500 nM.

Question: What about the CC50 at 72 h [1] of the same molecule?
Answer: The CC50 at 72 h was greater than 100000 nM.

Question: What about the IC50 (HIV-1 (HTLV-IIIB Strain); [6]) of the same molecule?
Answer: The IC50 was 300 nM.

Question: For `Nc1ncnc2c1ncn2[C@@H]1O[C@H](CO)[C@@H](O)[C@@H]1O` [adenine arabinoside], which “Success of therapy of hepatitis B” value [3] is on record?
Answer: The value was “limited success”.

Question: Which “Activity against Hepatitis B virus in culture” value (Hepatitis B virus) does the source give for `Nc1ccn([C@@H]2CS[C@H](CO)O2)c(=O)n1` (relative stereo) [(±) SddC, (+) and (-)-2',3'-Dideoxy-3'-thiacytidine] here?
Answer: Its value is “potent inhibitors of Hepatitis B virus”.

Question: Which “Success of therapy of hepatitis B” value [3] does the source give for interferon alpha here?
Answer: Its value is “limited success”.

Question: With `O=C(O)P(=O)(O)O` [foscarnet] as the molecule, how does the “Success of therapy of hepatitis B” value [3] read?
Answer: The value was “little, if any, success”.

Question: Which IC50 (HBV) does the source give for `Nc1nc(=O)n([C@@H]2CC[C@H](CO)O2)cc1F` [β-L-FddC, 1-(2,3-dideoxy-beta-L-ribofuranosyl)-5-fluorocytosine] here?
Answer: The IC50 was 10 nM.

Question: And the “Activity against HBV, comparison” value (HBV)?
Answer: Its value is “several fold higher activity against HBV”.

Question: What about the “Inhibition of HBV DNA replication” value (HBV) of the same molecule?
Answer: The value was “efficiently inhibited”.

Question: And the CC50 at 72 h [1]?
Answer: Its CC50 at 72 h is 67000 nM.

Question: What about the “Cellular cytotoxicity, comparison with ddC” value (CEM Cells) of the same molecule?
Answer: The value was “considerably less”.

Question: And the “Difference of anti-HIV ID50, β-L-FddC versus ddC” value (HIV-1 (HTLV-IIIB Strain); 0.007 vs 0.028 micromolar)?
Answer: Its value is 4 fold.

Question: And the IC50 (HIV-1 (HTLV-IIIB Strain); [7])?
Answer: Its IC50 is 7 nM.

Question: What about the “Anti-HIV activity compared with ddC” value (HIV-1 (HTLV-IIIB Strain)) of the same molecule?
Answer: The value was “significantly more effective than ddC; also recorded: several fold higher activity against HIV”.

Question: And the “Effect on host mitochondrial DNA” value [5]?
Answer: Its value is “relatively little effect”.

Question: What about the “Toxicity associated with dose limiting neuropathy” value [5] of the same molecule?
Answer: The value was “virtually no toxicity associated with dose limiting neuropathy”.

Question: What about the IC50 (in vitro) of the same molecule?
Answer: The IC50 was greater than 100000 nM.

Question: Which results are given for `Nc1ccn([C@H]2CC[C@H](CO)S2)c(=O)n1` [alpha-L-ddSC, 1(2,3-dideoxy-4-thio-alpha-L-ribofuranosyl) cytosine]?
Answer: IC50 (HBV): > 500 nM; CC50 at 72 h [1]: > 100000 nM; IC50 (HIV-1 (HTLV-IIIB Strain); [6]): > 100000 nM

Question: With `Cc1cn([C@H]2C[C@H](N=[N+]=[N-])[C@@H](CO)O2)c(=O)[nH]c1=O` [AZT, 3'-azido-3'deoxythymidine] as the molecule, how does the “Success of therapy of hepatitis B” value [3] read?
Answer: Its value is “little, if any, success”.
